# Key:
# rat = conditions: injection of TRH into the rat brain; cited from earlier work
# Sprague-Dawley rats = experiment: Blood glucose level in rats given compound alone (no STZ); format: in vivo, rat; conditions: Table 1, rats, TRH alone (no STZ)
# Experimental: (§1) Male Sprague-Dawley rats (S.D. 180 g) were used in the experiments described below. The animals lived in individual metabolism cages with free access to food and water, while food and body weight were monitored daily. Peripheral blood samples (approximately 10 μl) were obtained from the tail vein of the animals. The blood glucose levels were measured by using Accu-Check Blood Glucose Meter (Roche Diagnosetics Corporation, IN). Beta cell function was evaluated once every two days over a 2-week period by an individual unaware of the treatment group. Animals were evaluated separately for blood glucose level, food intake and body weight. The endpoint check was pancreatic insulin content and pancreatic beta cell number.
# (§2) The figures shown in the tables are blood glucose levels (mg/dL; i.e., milligrams of glucose per deciliter of blood).
# [1] = tested on: STZ-induced hyperglycemic rats; experiment: Effect on STZ-induced hyperglycemia in rats (blood glucose level); format: in vivo, rat; conditions: for blood glucose level: Table 1, rats, STZ + compound i.p.
# Experimental: as §1
# Streptozotocin (STZ) was used to chemically induce damage in pancreatic function in order to create a hyperglycemic state in the animals. Eight-week old male Sprague-Dawley rats (200.00 g±10 g) were injected with STZ by intraperitoneal (i.p.) (65 mg/kg body weight (BW)) to create hyperglycemic animals (24 to 48 hours). Blood glucose levels were monitored daily. Onset of hyperglycemia occurred usually about 24 to 48 hours after STZ administration.
# […] the seventh day or on the third day after STZ administration, which allowed for examination of the TRH/TRH analog treatment and the degree of pancreatic damage in the diabetic animal. Again, food intake, body weight and blood glucose levels of each of the animals were monitored. When hyperglycemia was determined to be reversed by TRH/TRH analog, the animal was sacrificed. Blood samples were collected for insulin assay and the pancreas and muscles were collected for further pathological and physiological tests.
# as §2
# [2] = in vivo; cited from earlier work
# pancreatic islets = experiment: Pancreatic islet count (HE histological staining); format: in vivo, rat; conditions: by activation of the TRH receptor
# Experimental: (§3) Partial pancreatic tissue was extracted with 1 N glacial acetic acid for insulin assay by ELISA. Four animals were used in each group. Each pancreas was placed in head (central) to tail (peripheral) orientation and immediately snap frozen and kept at −80° C. This orientation of the tissue provided an opportunity for sectioning of equal surface areas when cutting the frozen tissue. In this manner, the pancreas sections included every portion of the pancreas in parallel, while avoiding variations caused by sectioning from different areas. The HE histological staining was performed on serial sections (5 um thick) and islets were counted in 10 slides for each sample and standardized by dividing the total area (islets/cm^2).
# [3] = tested on: pancreatic beta cell function; experiment: Beta cell function evaluation after pancreatic damage; format: in vivo, rat; conditions: at 2 weeks after pancreatic damage
# Experimental: as §1
# [4] = tested on: STZ-induced hyperglycemic rats; experiment: Serum insulin assay after TRH treatment of STZ rats; format: in vivo, rat; conditions: following TRH vs. control and STZ groups
# Experimental: as §3
# A group of animals were given a single dose i.p. of 20 μg/kg BW or […] of TRH or TRH analogs on the seventh day or on the third day after STZ administration, which allowed for examination of the TRH/TRH analog treatment and the degree of pancreatic damage in the diabetic animal. Again, food intake, body weight and blood glucose levels of each of the animals were monitored. When hyperglycemia was determined to be reversed by TRH/TRH analog, the animal was sacrificed. Blood samples were collected for insulin assay and the pancreas and muscles were collected for further pathological and physiological tests.
smiles,measurement,setting,value
"NC(=O)[C@@H]1CCCN1C(=O)[C@H](Cc1cnc[nH]1)NC(=O)[C@@H]1CCC(=O)N1 [TRH, L-pyroglutamyl-L-histidyl-L-prolineamide, reference compound]",blood glucose levels,rat,reduce blood glucose levels
same,blood glucose level,Sprague-Dawley rats; Day 1,101.5 mg/dL
same,blood glucose level,Sprague-Dawley rats; Day 2,125 mg/dL
same,blood glucose level,Sprague-Dawley rats; Day 4,125 mg/dL
same,blood glucose level,Sprague-Dawley rats; Day 9,96 mg/dL
same,blood glucose level,Sprague-Dawley rats; Day 15,82.5 mg/dL
same,blood glucose level,Sprague-Dawley rats; Day 22,89 mg/dL
same,blood glucose level,Sprague-Dawley rats; Day 29,74.5 mg/dL
same,blood glucose level,Sprague-Dawley rats; Day 39,80 mg/dL
same,blood glucose level,Sprague-Dawley rats; Day 43,90.5 mg/dL
same,blood glucose level,Sprague-Dawley rats; Day 50,93 mg/dL
same,blood glucose level,Sprague-Dawley rats; Day 53,78 mg/dL
same,blood glucose level,Sprague-Dawley rats; Day 56,75 mg/dL
same,blood glucose level,Sprague-Dawley rats; Day 60,67 mg/dL
same,blood glucose level,Sprague-Dawley rats; Day 64,85 mg/dL
same,hyperglycemia,"[1]; TRH administration on day 3 following STZ injection, after 6 days",reversed the hyperglycemia
same,blood glucose level,[1]; Day 1,107.8 mg/dL
same,blood glucose level,[1]; Day 2,321.4 mg/dL
same,blood glucose level,[1]; Day 4,448.8 mg/dL
same,blood glucose level,[1]; Day 9,191.2 mg/dL
same,blood glucose level,[1]; Day 15,182.6 mg/dL
same,blood glucose level,[1]; Day 22,380.2 mg/dL
same,blood glucose level,[1]; Day 29,337 mg/dL
same,blood glucose level,[1]; Day 39,283.4 mg/dL
same,blood glucose level,[1]; Day 43,220.4 mg/dL
same,blood glucose level,[1]; Day 50,182 mg/dL
same,blood glucose level,[1]; Day 53,151 mg/dL
same,blood glucose level,[1]; Day 56,139 mg/dL
same,blood glucose level,[1]; Day 60,180 mg/dL
same,blood glucose level,[1]; Day 64,156 mg/dL
same,glucose levels over time,"[1]; rat treated with TRH after STZ-induced hyperglycemia, over a two month time period",continually decreased
same,STZ induced hyperglycemia,"[1]; rats, after seven days of TRH and STZ treatment",normalized
same,plasma half-life,[2],4 to 5 min
same,number of pancreatic islets,pancreatic islets,increases
same,pancreatic endocrine outcome,[3],improved
same,levels of insulin in the serum,[4],increased

# Source: US20080249028A1, “Thyrotropin-Releasing Hormone Analogs and Method of Use” (Roger Williams Hospital, priority 2005, published 2008)
